From paper PMC8602566 (Frontiers in Oncology, 2021) come the findings set out here.

For data set [1], the system named is Human glioma cell line SHG44. Kind of data set: MTT cell viability assay, SHG44. To be noted: SHG-44, MTT, 72 h, read-out: IC50 antiproliferative activity SHG44. The format is cell-based. The procedure:
(§1) Cell viability was measured using the 3-(4,5-dimethylthiazol-2-yl)-2,5-diphenyltetrazolium bromide (MTT) assay and was expressed as a ratio to the absorbance value at 570 nm of the control cells.
A general note: Tetrazolium dyes change colour on reduction, which living cells bring about.

The target of another data set is HDAC4 (Homo sapiens, UniProt P56524). Kind of data set: HDACs inhibition assay, HDAC4.
The test system of data set [2] is Human umbilical vein endothelial cells HUVEC. Nature of the data set: MTT cell viability assay, HUVEC. It counts as cell-based. The protocol: as §1
Data set [3] deals with Human glioblastoma cell line U87. Kind of data set: MTT cell viability assay, U87. To be noted: MTT, 72 h, read-out: IC50 antiproliferative activity U87. The format is cell-based. The procedure: Human GBM U87 cell line was purchased from the American Type Culture Collection (ATCC). Cells were cultured in Dulbecco’s modified Eagle’s medium (DMEM) supplemented with 10% fetal bovine serum (FBS) and maintained in a 37°C, 5% CO2 incubator. After cells were routinely passaged at 2- to 3-day intervals, experiments were carried out when the cells entered exponential growth phase.
as §1

Data set [4] has as its system acetylated histone H3 in U87 cells. Nature of the data set: Western blot analysis for H3-histone acetylation. It counts as cell-based, Human. The procedure:
U87 cells (5 × 10^5 cells/ml) in six-well plates were incubated with DMC-HA and lysed in radioimmunoprecipitation assay (RIPA) buffer containing protease and phosphatase inhibitors. Protein contents in the lysates were determined by Bradford’s assay, and 50 μg was separated by SDS polyacrylamide gel electrophoresis (SDS-PAGE) electrophoresis. Proteins were transferred to membranes and probed with human anti-acetylated H3 and anti-β actin antibodies as a loading control. Membranes were then labeled with the appropriate horseradish peroxidase (HRP)-conjugated immunoglobulin G (IgG), and protein bands were visualized using enhanced chemiluminescence. (Bio-Rad, Hercules, CA, USA).
Next, DMC-HA-induced acetylation of histone H3 in living cells was analyzed using Western blot method.
In general terms: A western blot detects proteins with antibodies after separation by electrophoresis.

Data set [5] is described as follows: Hepatic microsome stability assay, rat. To be noted: rat liver microsomes, NADPH, 37°C, pH 7.4. It counts as in vitro ADME. The procedure: Metabolic stability was assessed in the presence of human, mouse, and rat liver microsomes (XenoTech, Lenexa, KS, USA). All liquid dispenses and transfer steps were performed with the Freedom Evo automated liquid handler (Tecan US). Compound stock solutions were initially prepared in 100% DMSO and subsequently diluted in acetonitrile for the assay. The pH of the reactions was kept at 7.4 with potassium phosphate buffer. The reaction wells were prepared by adding microsomes to a well and allowed to warm to 37°C. Then, compound was added to each well. The reactions were […] by adding cofactor reduced nicotinamide adenine dinucleotide phosphate (NADPH) to the reaction well containing microsomes and compounds. Negative controls received buffer only. Immediately after reactions started, 0-min aliquots were promptly collected and mixed in a separate well with ice cold acetonitrile to quench the reactions. The remainder of the reaction volume was incubated at 37°C with shaking. An additional aliquot was collected at 60 min after the start of the reaction and promptly quenched with ice cold acetonitrile. Samples were vortexed and centrifuged at 3,500 rpm for 10 min. The amount of compound in the supernatant was determined by liquid chromatography–tandem mass spectrometry (LC/MS/MS) (Thermo Fischer Scientific, San Jose, CA, USA), and the percent of parent compound remaining after 60 min was calculated. Results are the mean of each reaction triplicate, normalized to the internal standard, and expressed as the percent of compound remaining after the incubation time.
Structures that are active in vitro may not be potent in vivo due to their susceptibility to metabolism in the body. We then thoroughly examined the liver microsomal metabolic stability of DMC-HA across three different species (Table 3). […] In addition, the half-life of DMC-HA in human microsome is generally two to three times longer than those in mice and rats. Collectively, the in vitro liver microsomal stability of DMC-HA is favorable, guaranteeing its further in vivo studies.

For another data set, the system named is U87 cells. Nature of the data set: LDH release. To be noted: increasing concentrations, 48 h. It counts as cell-based, Human. (In general: LDH in the medium is a marker of cell lysis.)

The structures appear in SMILES notation.

HDAC4, sequence (P56524 whole entry): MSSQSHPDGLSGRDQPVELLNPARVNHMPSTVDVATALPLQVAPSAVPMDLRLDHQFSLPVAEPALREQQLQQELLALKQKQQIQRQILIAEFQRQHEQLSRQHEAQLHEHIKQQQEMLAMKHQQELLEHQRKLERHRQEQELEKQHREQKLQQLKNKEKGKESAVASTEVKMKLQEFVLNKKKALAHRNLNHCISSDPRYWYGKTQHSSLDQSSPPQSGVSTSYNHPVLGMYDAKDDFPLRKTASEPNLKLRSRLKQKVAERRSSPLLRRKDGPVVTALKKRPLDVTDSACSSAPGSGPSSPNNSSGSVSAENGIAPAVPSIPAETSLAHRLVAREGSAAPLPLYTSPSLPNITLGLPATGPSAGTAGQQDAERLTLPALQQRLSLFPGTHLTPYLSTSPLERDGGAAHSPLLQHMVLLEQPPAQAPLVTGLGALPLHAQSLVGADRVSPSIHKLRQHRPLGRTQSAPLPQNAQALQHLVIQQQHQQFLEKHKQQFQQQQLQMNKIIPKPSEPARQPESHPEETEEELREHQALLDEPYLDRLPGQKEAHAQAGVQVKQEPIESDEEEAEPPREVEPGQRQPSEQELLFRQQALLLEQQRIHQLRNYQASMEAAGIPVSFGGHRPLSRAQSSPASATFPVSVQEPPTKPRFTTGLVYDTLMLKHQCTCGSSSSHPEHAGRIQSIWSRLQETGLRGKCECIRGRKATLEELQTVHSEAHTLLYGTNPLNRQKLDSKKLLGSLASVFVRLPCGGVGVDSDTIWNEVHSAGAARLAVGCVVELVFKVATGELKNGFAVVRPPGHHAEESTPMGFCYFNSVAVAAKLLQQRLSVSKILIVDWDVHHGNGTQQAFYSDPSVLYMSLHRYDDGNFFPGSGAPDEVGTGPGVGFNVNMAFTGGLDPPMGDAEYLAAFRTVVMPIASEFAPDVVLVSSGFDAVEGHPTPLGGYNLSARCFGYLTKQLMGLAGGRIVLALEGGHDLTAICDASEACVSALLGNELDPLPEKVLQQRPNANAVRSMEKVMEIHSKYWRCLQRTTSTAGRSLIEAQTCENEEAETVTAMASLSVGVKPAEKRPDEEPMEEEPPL
Protocol for HDAC4: The inhibition assays for HDACs were carried out according to standard protocols. […] The reaction was stopped by the addition of 45 μl of 100 mM HEPES (pH 7.5) and 0.08% sodium dodecyl sulfate (SDS). The substrate and the product were then separated electrophoretically using a LabChip 3000 system (Caliper Life Sciences, Hopkinton, MA) with blue laser excitation and green fluorescence detection.

For orientation: IC50 means the concentration that gives 50% inhibition. For orientation: microsomal CLint means the rate of metabolic loss divided by the concentration. `COc1cc(/C=C/C(=O)CC(=O)/C=C/c2ccc(/C=C/C(=O)NO)cc2)ccc1O` [DMC-HA]: the IC50 in data set [1] is 4.62 ± 0.72 µM; at HDAC4, more than 10 µM; in data set [2] (Homo sapiens, HUVEC, MTT, 72 h, normal cells, read-out: IC50 HUVEC), 27.4 ± 3.94 µM; in data set [3], 2.78 ± 0.81 µM. Also, in data set [2] (in words), the “toxicity to human umbilical vein endothelial cells (HUVECs)” value is reported as “low toxicity”. Further, the “acetylation of histone H3, time dependence” value in data set [4] (5 μM, different times) is listed as “increased in a time-dependent manner”. Further, the “acetylation of histone H3, dose dependence” value in data set [4] (various concentrations, 24 h) is listed as “dose dependently increased the acetylation of histone H3”. For the same compound, the “Rat Liver Microsomal Stability T1/2” value in data set [5] came out at 40.7 min. For the same compound, the microsomal CLint in data set [5] amounted to 34.2 µL/min/mg. For the same compound, the “LDH release / cell death” value in the data set with U87 cells is given as “induces cell death in a dose-dependent manner”.
